# Laboratory results: ChEMBL document CHEMBL4507287, “Data for DCP probe MRL-650” (2021)
# Tests used:
# [1] = biological target: Activin receptor type-1B (Homo sapiens) (UniProt P36896); conditions: Compound concentration 1000.0 nM
# [2] = biological target: Casein kinase I isoform alpha (Homo sapiens) (UniProt P48729); conditions: Compound concentration 1000.0 nM
# [3] = biological target: Beta-2 adrenergic receptor (Homo sapiens) (UniProt P07550); conditions: Compound concentration 10.0 uM
# [4] = biological target: Dual specificity mitogen-activated protein kinase kinase 7 (Homo sapiens) (UniProt O14733); conditions: Compound concentration 1000.0 nM
# [5] = biological target: Mitogen-activated protein kinase kinase kinase 13 (Homo sapiens) (UniProt O43283); conditions: Compound concentration 1000.0 nM
# [6] = biological target: Alpha-2B adrenergic receptor (Homo sapiens) (UniProt P18089); conditions: Compound concentration 10.0 uM
# [7] = biological target: Tyrosine-protein kinase HCK (Homo sapiens) (UniProt P08631); conditions: Compound concentration 1000.0 nM
# [8] = biological target: Vascular endothelial growth factor receptor 3 (Homo sapiens) (UniProt P35916); conditions: Compound concentration 1000.0 nM
# [9] = biological target: Serine/threonine-protein kinase SIK1 (Homo sapiens) (UniProt P57059); conditions: Compound concentration 1000.0 nM
# [10] = biological target: RAC-alpha serine/threonine-protein kinase (Homo sapiens) (UniProt P31749); conditions: Compound concentration 1000.0 nM
# [11] = biological target: Ephrin type-A receptor 6 (Homo sapiens) (UniProt Q9UF33); conditions: Compound concentration 1000.0 nM
# [12] = test system: Tyrosine-protein kinase ABL1 (Homo sapiens), P00519 [F317I]; conditions: Compound concentration 1000.0 nM
# [13] = biological target: Ankyrin repeat and protein kinase domain-containing protein 1 (Homo sapiens) (UniProt Q8NFD2); conditions: Compound concentration 1000.0 nM
# [14] = biological target: Serine/threonine-protein kinase Chk1 (Homo sapiens) (UniProt O14757); conditions: Compound concentration 1000.0 nM
# [15] = biological target: Serine/threonine-protein kinase D3 (Homo sapiens) (UniProt O94806); conditions: Compound concentration 1000.0 nM
# [16] = biological target: Death-associated protein kinase 2 (Homo sapiens) (UniProt Q9UIK4); conditions: Compound concentration 1000.0 nM
# [17] = biological target: Cyclin-dependent kinase 7 (Homo sapiens) (UniProt P50613); conditions: Compound concentration 1000.0 nM
# Cyclin-dependent kinase 7 (Homo sapiens), sequence (P50613 whole entry): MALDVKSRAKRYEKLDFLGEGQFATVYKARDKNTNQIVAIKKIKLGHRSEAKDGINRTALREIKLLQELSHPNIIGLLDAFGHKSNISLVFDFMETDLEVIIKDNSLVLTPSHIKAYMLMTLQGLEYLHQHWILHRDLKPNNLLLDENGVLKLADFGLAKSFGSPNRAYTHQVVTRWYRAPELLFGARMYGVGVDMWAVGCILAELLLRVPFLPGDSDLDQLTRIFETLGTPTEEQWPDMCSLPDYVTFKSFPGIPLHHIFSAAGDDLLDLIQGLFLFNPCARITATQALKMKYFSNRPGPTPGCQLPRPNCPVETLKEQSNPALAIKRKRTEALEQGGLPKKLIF
# [18] = biological target: Ephrin type-B receptor 3 (Homo sapiens) (UniProt P54753); conditions: Compound concentration 1000.0 nM
# [19] = biological target: Sigma non-opioid intracellular receptor 1 (Homo sapiens, UniProt Q99720); conditions: Compound concentration 10.0 uM
# Sigma non-opioid intracellular receptor 1, sequence (Q99720 whole entry): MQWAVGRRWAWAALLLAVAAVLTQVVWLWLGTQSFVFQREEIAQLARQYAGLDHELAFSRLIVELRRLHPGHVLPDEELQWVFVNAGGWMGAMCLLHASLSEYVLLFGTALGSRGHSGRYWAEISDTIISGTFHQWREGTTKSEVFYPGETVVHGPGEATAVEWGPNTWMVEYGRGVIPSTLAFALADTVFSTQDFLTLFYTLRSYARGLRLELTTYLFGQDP
# [20] = biological target: Cyclin-dependent kinase 11B (Homo sapiens) (UniProt P21127); conditions: Compound concentration 1000.0 nM
# [21] = biological target: Mitogen-activated protein kinase kinase kinase 9 (Homo sapiens) (UniProt P80192); conditions: Compound concentration 1000.0 nM
# [22] = biological target: Macrophage-stimulating protein receptor (Homo sapiens) (UniProt Q04912); conditions: Compound concentration 1000.0 nM
# Macrophage-stimulating protein receptor (Homo sapiens), sequence (Q04912 25-304 limits assumed): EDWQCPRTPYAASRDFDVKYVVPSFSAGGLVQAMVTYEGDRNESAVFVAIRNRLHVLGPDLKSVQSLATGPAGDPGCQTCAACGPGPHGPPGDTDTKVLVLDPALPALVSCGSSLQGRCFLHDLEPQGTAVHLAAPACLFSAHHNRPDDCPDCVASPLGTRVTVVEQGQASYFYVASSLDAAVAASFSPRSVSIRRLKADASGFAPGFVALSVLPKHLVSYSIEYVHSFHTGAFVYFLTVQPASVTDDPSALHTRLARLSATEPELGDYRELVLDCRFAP
# Macrophage-stimulating protein receptor (Homo sapiens), sequence (Q04912 310-1400 limits assumed): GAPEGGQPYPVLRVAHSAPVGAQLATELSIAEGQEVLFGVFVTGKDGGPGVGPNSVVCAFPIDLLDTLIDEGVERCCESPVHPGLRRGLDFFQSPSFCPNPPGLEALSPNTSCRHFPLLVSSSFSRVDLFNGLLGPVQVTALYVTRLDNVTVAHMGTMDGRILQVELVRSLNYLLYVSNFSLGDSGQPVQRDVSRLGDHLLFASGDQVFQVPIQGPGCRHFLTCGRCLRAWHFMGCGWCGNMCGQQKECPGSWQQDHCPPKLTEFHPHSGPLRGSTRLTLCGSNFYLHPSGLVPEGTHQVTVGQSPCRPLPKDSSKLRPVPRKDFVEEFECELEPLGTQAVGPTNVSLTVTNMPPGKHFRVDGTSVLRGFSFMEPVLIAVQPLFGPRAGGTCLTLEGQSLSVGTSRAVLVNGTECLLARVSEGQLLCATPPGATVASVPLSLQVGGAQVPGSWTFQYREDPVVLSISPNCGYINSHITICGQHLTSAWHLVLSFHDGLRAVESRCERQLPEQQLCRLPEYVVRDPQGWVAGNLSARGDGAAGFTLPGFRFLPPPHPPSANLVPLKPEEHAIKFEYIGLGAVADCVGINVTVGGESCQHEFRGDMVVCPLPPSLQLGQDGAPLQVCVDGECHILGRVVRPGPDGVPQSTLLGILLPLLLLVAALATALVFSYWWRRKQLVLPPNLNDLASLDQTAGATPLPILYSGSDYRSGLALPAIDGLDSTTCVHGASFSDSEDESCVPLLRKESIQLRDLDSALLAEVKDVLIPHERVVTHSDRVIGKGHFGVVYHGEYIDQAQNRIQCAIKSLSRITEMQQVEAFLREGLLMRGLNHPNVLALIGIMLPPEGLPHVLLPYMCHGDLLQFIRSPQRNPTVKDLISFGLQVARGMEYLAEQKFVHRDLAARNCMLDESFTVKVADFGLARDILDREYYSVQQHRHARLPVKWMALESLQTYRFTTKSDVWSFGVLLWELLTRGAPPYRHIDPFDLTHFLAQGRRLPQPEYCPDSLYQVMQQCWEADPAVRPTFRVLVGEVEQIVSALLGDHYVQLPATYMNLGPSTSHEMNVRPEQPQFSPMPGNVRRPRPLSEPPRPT
# [23] = biological target: Cyclin-dependent kinase-like 5 (Homo sapiens) (UniProt O76039); conditions: Compound concentration 1000.0 nM
# [24] = biological target: Mitogen-activated protein kinase 8 (Homo sapiens) (UniProt P45983); conditions: Compound concentration 1000.0 nM
# [25] = biological target: Casein kinase II subunit alpha' (Homo sapiens) (UniProt P19784); conditions: Compound concentration 1000.0 nM
# [26] = biological target: Cyclin-dependent kinase 4 (Homo sapiens) (UniProt P11802); conditions: Compound concentration 1000.0 nM
# Cyclin-dependent kinase 4 (Homo sapiens), sequence (P11802 whole entry): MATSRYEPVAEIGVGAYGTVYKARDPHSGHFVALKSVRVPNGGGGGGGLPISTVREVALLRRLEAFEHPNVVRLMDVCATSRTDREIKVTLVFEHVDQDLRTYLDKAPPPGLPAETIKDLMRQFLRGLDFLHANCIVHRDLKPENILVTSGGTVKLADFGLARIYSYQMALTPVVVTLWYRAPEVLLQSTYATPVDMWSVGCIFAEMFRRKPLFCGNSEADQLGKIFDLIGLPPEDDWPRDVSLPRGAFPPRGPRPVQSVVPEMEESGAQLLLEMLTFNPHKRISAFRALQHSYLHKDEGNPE
# [27] = biological target: Serine/threonine-protein kinase WNK3 (Homo sapiens) (UniProt Q9BYP7); conditions: Compound concentration 1000.0 nM
# [28] = biological target: Homeodomain-interacting protein kinase 3 (Homo sapiens) (UniProt Q9H422); conditions: Compound concentration 1000.0 nM
# [29] = biological target: cAMP-dependent protein kinase catalytic subunit PRKX (Homo sapiens) (UniProt P51817); conditions: Compound concentration 1000.0 nM
# [30] = biological target: G protein-coupled receptor kinase 3 (Homo sapiens) (UniProt P35626); conditions: Compound concentration 1000.0 nM
# [31] = biological target: Vascular endothelial growth factor receptor 1 (Homo sapiens) (UniProt P17948); conditions: Compound concentration 1000.0 nM
# [32] = biological target: Serine/threonine-protein kinase PknB (Mycobacterium tuberculosis) (UniProt P9WI81); conditions: Compound concentration 1000.0 nM
# [33] = biological target: Phosphorylase b kinase regulatory subunit alpha, liver isoform (Homo sapiens) (UniProt P46019); conditions: Compound concentration 1000.0 nM
# [34] = biological target: Protein kinase C epsilon type (Homo sapiens) (UniProt Q02156); conditions: Compound concentration 1000.0 nM
# [35] = test system: Receptor-type tyrosine-protein kinase FLT3 (Homo sapiens), P36888 [UNDEFINED MUTATION]; conditions: Compound concentration 1000.0 nM
# [36] = biological target: Serine/threonine-protein kinase Nek2 (Homo sapiens) (UniProt P51955); conditions: Compound concentration 1000.0 nM
# [37] = biological target: NT-3 growth factor receptor (Homo sapiens) (UniProt Q16288); conditions: Compound concentration 1000.0 nM
# Rattus norvegicus = species: Rattus norvegicus; conditions: Compound concentration 10.0 uM
# [38] = biological target: Serine/threonine-protein kinase D2 (Homo sapiens) (UniProt Q9BZL6); conditions: Compound concentration 1000.0 nM
# Serine/threonine-protein kinase D2 (Homo sapiens), sequence (Q9BZL6 whole entry, canonical isoform): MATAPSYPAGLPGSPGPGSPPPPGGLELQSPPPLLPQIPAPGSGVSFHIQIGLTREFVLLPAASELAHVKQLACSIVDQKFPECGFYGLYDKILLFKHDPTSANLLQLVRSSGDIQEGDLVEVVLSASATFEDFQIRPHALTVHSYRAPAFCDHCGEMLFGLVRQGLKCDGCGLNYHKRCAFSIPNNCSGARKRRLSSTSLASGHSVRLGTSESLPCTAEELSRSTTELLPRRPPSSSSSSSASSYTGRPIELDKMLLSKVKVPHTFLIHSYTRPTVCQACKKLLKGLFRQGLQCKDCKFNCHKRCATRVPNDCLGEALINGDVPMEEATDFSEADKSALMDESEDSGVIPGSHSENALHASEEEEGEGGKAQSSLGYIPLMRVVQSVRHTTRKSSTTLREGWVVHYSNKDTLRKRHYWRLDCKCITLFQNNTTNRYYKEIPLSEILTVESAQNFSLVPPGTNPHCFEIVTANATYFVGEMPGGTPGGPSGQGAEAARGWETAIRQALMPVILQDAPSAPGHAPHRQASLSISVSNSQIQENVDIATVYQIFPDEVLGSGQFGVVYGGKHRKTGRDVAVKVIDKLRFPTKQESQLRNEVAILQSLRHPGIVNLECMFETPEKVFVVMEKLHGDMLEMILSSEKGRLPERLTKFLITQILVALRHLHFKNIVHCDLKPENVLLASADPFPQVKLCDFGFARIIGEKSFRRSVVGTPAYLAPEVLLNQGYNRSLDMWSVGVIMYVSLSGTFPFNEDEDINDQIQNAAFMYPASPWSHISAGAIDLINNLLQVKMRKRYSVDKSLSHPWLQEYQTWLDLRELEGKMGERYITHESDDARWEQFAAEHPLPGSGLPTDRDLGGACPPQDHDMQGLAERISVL
# [39] = biological target: Casein kinase I isoform epsilon (Homo sapiens) (UniProt P49674); conditions: Compound concentration 1000.0 nM
# [40] = test system: Epidermal growth factor receptor (Homo sapiens), P00533 [G719S]; conditions: Compound concentration 1000.0 nM
# [41] = biological target: Serine/threonine-protein kinase Nek6 (Homo sapiens) (UniProt Q9HC98); conditions: Compound concentration 1000.0 nM
# [42] = biological target: Activin receptor type-1 (Homo sapiens) (UniProt Q04771); conditions: Compound concentration 1000.0 nM
# [43] = biological target: Dual specificity mitogen-activated protein kinase kinase 5 (Homo sapiens) (UniProt Q13163); conditions: Compound concentration 1000.0 nM
# Dual specificity mitogen-activated protein kinase kinase 5 (Homo sapiens), sequence (Q13163 whole entry): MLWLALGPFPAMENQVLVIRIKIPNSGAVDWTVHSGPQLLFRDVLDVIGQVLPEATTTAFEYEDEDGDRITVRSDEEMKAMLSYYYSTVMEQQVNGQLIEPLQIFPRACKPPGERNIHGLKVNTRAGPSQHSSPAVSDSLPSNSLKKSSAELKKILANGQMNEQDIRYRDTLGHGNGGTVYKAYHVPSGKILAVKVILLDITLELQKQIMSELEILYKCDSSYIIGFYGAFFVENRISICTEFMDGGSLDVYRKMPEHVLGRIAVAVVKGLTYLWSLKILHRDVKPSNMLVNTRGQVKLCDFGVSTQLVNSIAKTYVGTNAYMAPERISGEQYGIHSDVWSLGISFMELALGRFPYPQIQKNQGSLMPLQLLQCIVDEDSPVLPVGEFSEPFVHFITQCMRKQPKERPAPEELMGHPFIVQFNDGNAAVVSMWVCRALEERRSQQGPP
# [44] = biological target: Serine/threonine-protein kinase Chk2 (Homo sapiens) (UniProt O96017); conditions: Compound concentration 1000.0 nM
# [45] = biological target: Protein kinase C iota type (Homo sapiens) (UniProt P41743); conditions: Compound concentration 1000.0 nM
# Activin receptor type-1B (Homo sapiens), sequence (P36896 whole entry, canonical isoform): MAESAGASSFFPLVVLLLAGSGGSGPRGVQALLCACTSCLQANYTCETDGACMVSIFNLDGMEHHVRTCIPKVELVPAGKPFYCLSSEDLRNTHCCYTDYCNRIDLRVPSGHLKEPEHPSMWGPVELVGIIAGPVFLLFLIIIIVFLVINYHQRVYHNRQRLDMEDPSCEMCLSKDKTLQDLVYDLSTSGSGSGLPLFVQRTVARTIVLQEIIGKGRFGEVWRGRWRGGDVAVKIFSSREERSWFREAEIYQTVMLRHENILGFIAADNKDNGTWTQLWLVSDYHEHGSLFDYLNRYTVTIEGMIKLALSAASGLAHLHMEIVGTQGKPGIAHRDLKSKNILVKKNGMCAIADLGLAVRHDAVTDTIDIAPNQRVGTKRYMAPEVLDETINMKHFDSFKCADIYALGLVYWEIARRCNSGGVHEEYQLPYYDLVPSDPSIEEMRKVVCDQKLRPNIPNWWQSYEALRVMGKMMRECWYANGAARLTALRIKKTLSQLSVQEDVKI
# Beta-2 adrenergic receptor (Homo sapiens), sequence (P07550 whole entry, looked up): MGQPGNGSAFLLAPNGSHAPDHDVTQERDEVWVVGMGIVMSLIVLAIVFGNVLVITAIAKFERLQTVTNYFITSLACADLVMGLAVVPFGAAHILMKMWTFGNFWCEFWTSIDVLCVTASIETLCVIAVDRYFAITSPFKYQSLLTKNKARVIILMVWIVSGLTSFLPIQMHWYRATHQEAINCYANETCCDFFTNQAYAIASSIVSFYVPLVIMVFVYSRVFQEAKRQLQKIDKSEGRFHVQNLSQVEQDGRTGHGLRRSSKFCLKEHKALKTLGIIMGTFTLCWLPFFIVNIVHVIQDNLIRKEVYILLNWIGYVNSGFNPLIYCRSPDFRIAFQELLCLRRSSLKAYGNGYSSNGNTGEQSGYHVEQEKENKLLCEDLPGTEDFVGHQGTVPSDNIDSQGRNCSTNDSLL
# Casein kinase I isoform alpha (Homo sapiens), sequence (P48729 2-337 limits assumed): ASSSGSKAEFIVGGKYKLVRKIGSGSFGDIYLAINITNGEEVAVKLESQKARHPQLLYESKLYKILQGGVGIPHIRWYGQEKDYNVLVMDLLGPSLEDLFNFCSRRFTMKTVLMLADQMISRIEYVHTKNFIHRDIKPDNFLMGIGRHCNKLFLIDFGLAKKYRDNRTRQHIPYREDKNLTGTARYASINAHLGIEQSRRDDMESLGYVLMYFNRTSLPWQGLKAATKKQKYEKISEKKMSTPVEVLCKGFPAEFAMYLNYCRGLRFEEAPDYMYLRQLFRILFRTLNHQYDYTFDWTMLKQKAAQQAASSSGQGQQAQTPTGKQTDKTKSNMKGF
smiles,measurement,setting,value
CC(=O)c1c(NS(C)(=O)=O)c2cc(-c3ccc(Cl)cc3)c(-c3ccc(Cl)cc3Cl)nc2n(C)c1=O [MRL-CB1-NC],residual activity,[1],92%
same,residual activity,[2],100%
same,inhibition,[3],5.51%
same,residual activity,[4],100%
same,residual activity,[5],71%
same,inhibition,[6],67.2%
same,residual activity,[7],100%
same,residual activity,[8],100%
same,residual activity,[9],100%
same,residual activity,[10],89%
same,residual activity,[11],93%
same,residual activity,[12],76%
same,residual activity,[13],70%
same,residual activity,[14],100%
same,residual activity,[15],100%
same,residual activity,[16],100%
same,residual activity,[17],82%
same,residual activity,[18],100%
same,inhibition,[19],-7.46%
same,residual activity,[20],84%
same,residual activity,[21],100%
same,residual activity,[22],88%
same,residual activity,[23],94%
same,residual activity,[24],63%
same,residual activity,[25],100%
same,residual activity,[26],100%
same,residual activity,[27],80%
same,residual activity,[28],88%
same,residual activity,[29],97%
same,residual activity,[30],100%
same,residual activity,[31],100%
same,residual activity,[32],83%
same,residual activity,[33],100%
same,residual activity,[34],96%
same,residual activity,[35],87%
same,residual activity,[36],100%
same,residual activity,[37],98%
same,inhibition,Rattus norvegicus,36.9%
same,residual activity,[38],88%
same,residual activity,[39],100%
same,residual activity,[40],100%
same,residual activity,[41],100%
same,residual activity,[42],93%
same,residual activity,[43],80%
same,residual activity,[44],100%
same,residual activity,[45],100%
CC(=O)Nc1c(C(C)=O)c(=O)n(C)c2nc(-c3ccc(Cl)cc3Cl)c(-c3ccc(Cl)cc3)cc12 [NAPHTHYRIDINONE],residual activity,[1],94%
same,residual activity,[2],100%
same,inhibition,[3],12.6%
same,residual activity,[4],100%
same,residual activity,[5],100%
same,inhibition,[6],16.6%
same,residual activity,[7],100%
same,residual activity,[8],100%
same,residual activity,[9],100%
same,residual activity,[10],100%
same,residual activity,[11],100%
same,residual activity,[12],77%
same,residual activity,[13],100%
same,residual activity,[14],100%
same,residual activity,[15],100%
same,residual activity,[16],100%
same,residual activity,[17],100%
same,residual activity,[18],100%
same,inhibition,[19],50%
same,residual activity,[20],83%
same,residual activity,[21],100%
same,residual activity,[22],100%
same,residual activity,[23],100%
same,residual activity,[24],71%
same,residual activity,[25],100%
same,residual activity,[26],100%
same,residual activity,[27],100%
same,residual activity,[28],97%
same,residual activity,[29],100%
same,residual activity,[30],99%
same,residual activity,[31],100%
same,residual activity,[32],100%
same,residual activity,[33],100%
same,residual activity,[34],48%
same,residual activity,[35],100%
same,residual activity,[36],100%
same,residual activity,[37],100%
same,inhibition,Rattus norvegicus,82.7%
same,residual activity,[38],100%
same,residual activity,[39],100%
same,residual activity,[40],100%
same,residual activity,[41],100%
same,residual activity,[42],100%
same,residual activity,[43],94%
same,residual activity,[44],100%
same,residual activity,[45],100%
